Results from patent US9050353B2, “Use of icariin and epimedium flavonoids containing icariin to treat diseases associated with myelin sheath lesion” (Xuanwu Hospital of Capital Medical University, priority 2010, dated 2015).

Tests used:
[1] = tested on: CNPase; assay: CNPase positive cells of spinal cord lumbar intumescentia by immunohistochemical method, EAE rats; format: in vivo; conditions: positive control drug, dose not given
Protocol: (§1) Preparation of rat model and administration: experimental autoimmune encephalomyelitis (EAE) model is an important tool for studying various human demyelinating diseases of nervous system. In the example, the preparation of EAE rat model was performed by multipoint immunizing female Lewis rats subcutaneously at tail root with a homogenate of spinal cord and cerebral gray matter of Guinea pig as well as complete Freund's adjuvant after emulsification. They were intragastrically administered with Epimedium flavanoids for 3 weeks.
Experimental objective: myelin sheath is formed with prominences of oligodendroglial cells. 2′3′-cyclic […]-3′-phosphodiesterase (CNPase) is a marker protein of mature oligodendroglial cells. In this experiment, CNPase content of cerebral cortex in EAE rat model was measured by Western blot method, CNPase content of spinal cord lumbar intumescentia was measured by immunohistochemical method; and the effects of Epimedium flavanoids on these contents were observed.
Experimental method: the rats were anesthetized with 10% chloral hydrate on the 14th day of experiment, fixed by perfusion of 4% paraformaldehyde, spinal cord tissues were taken for frozen section. […] Pictures were analyzed using Image Pro plus5.0 software to count positive cells.

[2] = tested on: peripheral blood CD4+ and CD8+ T cells; assay: Peripheral blood T cell subgroup by flow cytometer, EAE mice; format: in vivo; conditions: positive control drug, dose not given
Protocol: (§2) Preparation of mice model and administration: experimental autoimmune encephalomyelitis (EAE) mice model is an important tool for studying various human demyelinating diseases of nervous system. In the present experiment, the preparation of EAE mice model was performed by immunizing female C57BL/6J mice with myelin sheath oligodendroglial cell surface glycoprotein MOG35-55. That is, the mice were subcutaneously injected at dorsal part of spinal column with 0.2 mL of MOG35-55 antigen elixir, and 0.2 ml of bordetella pertussis solution was intraperitoneally injected at the time of immunization injection and 48 h thereafter, respectively. Icariin was intragastrically administered after the last injection of bordetella pertussis solution, for consecutive 3 weeks.
Experimental objective: one common feature of autoimmune diseases is the […]. In this experiment, the numbers of CD4+ and CD8+ cells in peripheral blood T cell subgroup of EAE mice mode were measured by flow cytometer (FACS), and the ratio of them was obtained; and the effects of icariin on these changes were observed.
Experimental method: mice were anesthetized with pentobarbital sodium, blood sample was taken from abdominal aorta, stood at room temperature for 2 h, centrifuged at 3000 rpm for 20 min, and cells were taken, added with anti-CD4+, CD8+ T cell antibodies with different markers, then the percentages of CD4+, CD8+ cells in T lymphocytes were measured by flow cytometer, and the CD4+/CD8+ T cells ratio was calculated.

[3] = tested on: IL-1; assay: Serum IL-1 content by ELISA, EAE mice; format: in vivo; conditions: positive control drug, dose not given
Protocol: as §2
Experimental objective: interleukin-1 (IL-1) and IL-6 are important inflammatory cytokines, and have promoting effects on inflammatory reactions. This experiment used enzyme linked immunosorbent assay (ELISA) to measure contents of IL-1 and IL-6 in serums of EAE mice model, and the effects of icariin on these contents were observed.
Experimental method: mice were anesthetized with pentobarbital sodium, blood sample was taken from abdominal aorta, stood at room temperature for 2 h, centrifuged at 3000 rpm for 20 min, and supernatant was taken, stored at −80° C. for use. The operation was performed strictly according to the steps of specification of ELISA kit. Optical density was measured with ELIASA at 450 nm. The corresponding contents of IL-1 and IL-6 were calculated with the measured OD values on standard curves.

[4] = tested on: myelinoclasis of spinal cord lumbar intumescentia in EAE rat model; assay: Myelinoclasis of spinal cord lumbar intumescentia, LFB staining, EAE rats; format: in vivo; conditions: positive control drug, dose not given, scale 0-4
Protocol: as §1, with “weeks. […]” for “weeks.”
Experimental method: the rats were anesthetized with 10% chloral hydrate on the 14th day of experiment, fixed by perfusion of 4% paraformaldehyde, spinal cord tissues were taken for making paraffin sections, section thickness 4 μm. (1) Stained with LFB, observed under microscope, and scored according to the following standard: 0 score, absence of myelinoclasis; 1 score, one small range of myelinoclasis; 2 score, 2 or 3 small ranges of myelinoclasis; 3 score, 1 to 2 large ranges of myelinoclasis; 4 score, large ranges of myelinoclasis accumulatively existing in 20% or more of white matter regions. […]

[5] = tested on: experimental autoimmune encephalomyelitis (EAE) rat model; assay: Nervous function damage score in EAE rat model; format: in vivo, Lewis rats; conditions: EAE rats, peak of attack; positive control drug, dose not given; scale 0-6
Protocol: as §1
Nervous function test method: the ethological changes of rats were observed by two experimenters using blind method every day. Nervous function damage scoring standard: 0 score, absence of symptom; 1 score, decrease of tail tension, visible evident slight gait awkward; 2 score, double hind limbs weak, walk difficult; 3 score, double hind limbs paralysis; 4 score, double hind limbs paralysis and fore limbs weak; 5 score, four limbs paralysis; 6 score, near death or died.

[6] = tested on: experimental autoimmune encephalomyelitis (EAE) mice model; assay: Nervous function damage score in EAE mice model; format: in vivo, C57BL/6J mice; conditions: peak of attack, positive control drug, dose not given, scale 0-5
Protocol: as §2
Nervous function test method: the ethological changes of mice were observed by two experimenters every day using blind method. Scoring standard: 0 score, absence of symptom; 1 score, decrease of tail tension, evident slight gait awkward; 2 score, disappearance of tail tension, moderate gait abnormal, deficient in maintaining gesture; 3 score, limb strength weak; 4 score, limb paralysis; 5 score, near death or died.

[7] = tested on: Superoxide dismutase (SOD); assay: SOD activity of cerebral cortex, biochemical kit, EAE rats; format: in vivo; conditions: positive control drug, dose not given
Protocol: as §1
Experimental objective: the lipid peroxidation between oxygen free radicals and unsaturated fatty acids of cell membranes and organelle membranes results in the damage, degradation, denaturation and dysfunction of membrane phospholipids. Malondialdehyde (MDA) is a metabolic product of lipid peroxidation, and the increase of MDA indicates the enhancement of lipid peroxidation, which may lead to damage of nerve cells and myelin sheath. Superoxide dismutase (SOD) can scavenge superoxide anions and is an important antioxidase in vivo. In this experiment, SOD activity and MDA content of brain tissues in EAE rat model were measured by biochemistry method, and the effects of Epimedium flavanoids on changes thereof were observed. […]

In the case of `CC(=O)OCC(=O)[C@@]1(O)CC[C@H]2[C@@H]3CCC4=CC(=O)C=C[C@]4(C)[C@H]3C(=O)C[C@@]21C` [prednisone acetate], the “CNPase positive cell count” value [1] is reported as 1378.2 ± 125.4, the “CD4 + T cells” value [2] is reported as 30.45 ± 8.77% and the “CD4 +/CD8 + ratio” value [2] is reported as 0.52 ± 0.23. The “CD8 + T cells” value [2] was 60.62 ± 5.58%, the IL-1 content [3] was 0.115 ± 0.001 pg/mL and the “Myelinoclasis (LFB staining score)” value [4] was 0.89 ± 0.20. For the same molecule, the “Nervous function damage score” value [5] was 0.83 ± 0.48, the “Nervous function damage score” value [6] was 0.89 ± 0.28 and the SOD activity [7] was 134.5 ± 5.1 U/mg protein.
